US20250101034A1, “COMPOSITIONS USEFUL FOR MODULATING SPLICING” (SKYHAWK THERAPEUTICS, INC., priority 2021, published 2025)

Legend:
[1] = test system: ATXN3 transcripts containing exon 4 (E4E5); experiment: ATXN3 quantitative splicing assay (qPCR, SK-N-MC cells); assay type: cell-based; details: Homo sapiens, 24 h treatment, qPCR E4E5 primers/probe, read-out: ATXN3 Potency - Splicing E4E5 IC50
Experimental: Human neuroblastoma SK-N-MC cells were plated in 384-well plates at 20,000 cells/well. Twenty-four hours after plating, cells were treated with compounds for 24 h at appropriate concentrations ranging from 30 μM to 0.6 nM (0.3% DMSO). Treated cells were lysed in 15 μL of lysis buffer, and cDNA was synthesized using the Fast Advanced Cells-to-Ct kit. Two μL of each cDNA was used in qPCR reactions to confirm the exon 4 skipped transcripts of ATXN3. A second set of primers/probe E4E5 was used to detect the transcripts containing exon 4. The third set of primers/probe E8E9 was used to detect total gene level of ATXN3. The qPCR reactions were prepared in 384-well plates in 10 μL volume, using TaqMan™ Fast Advanced Master Mix with primers and probes shown in the table below. Reactions were run in a Quant Studio 6 qPCR instrument with default settings.
The primers and probes are listed below in Table 4.

[2] = test system: total ATXN3 protein; experiment: ATXN3 total protein assay (MSD, SK-N-MC cells); assay type: cell-based, Human; details: 48 hours incubation, read-out: ATXN3 Potency - Protein IC50
Experimental: Human neuroblastoma SK-N-MC cells were seeded at 10,000 cells/well in 384 well plates one day prior to compound treatment. The concentrations of compounds were tested at appropriate doses ranging from 30 μM to 0.6 nM. After incubation for 48 hours, the cells were lysed with 25 μL of lysis buffer containing protease inhibitors, and total ATXN3 protein levels were assessed by Mesoscale Discovery (MSD) assay developed with one pair of anti-ATXN3 antibodies. The capture and detect antibodies were raised in mouse and rabbit respectively. Anti-rabbit MSD-ST antibody was used for secondary antibody.
ATXN3 recombinant protein was used for standards. The readouts were captured with 35 μL of MSD read buffer and multi-array 384-well high binding plates.

SMILES | IC50 [1] [µM] | IC50 [2] [µM]
Cc1c(C[C@@H](N)C[S+](C)[O-])sc2c(NCc3ccco3)cnnc12 (stereo partly drawn) [Compound 33, 6-[(2R)-2-amino-3-methanesulfinylpropyl]-N-[(furan-2-yl)methyl]-7-methylthieno[3,2-c]pyridazin-4-amine] | 10 to 40 | 10 to 40
Cc1c(C[C@H](C)N)sc2c(NCc3csc(F)c3)cnnc12 [Compound 56, 6-[(2S)-2-aminopropyl]-N-[(5-fluorothiophen-3-yl)methyl]-7-methylthieno[3,2-c]pyridazin-4-amine] | 10 to 40 | 10 to 40
Cc1c(C[C@H](C)N)sc2c(NCc3cccs3)c(F)nnc12 [Compound 97, 6-[(2S)-2-aminopropyl]-3-fluoro-7-methyl-N-[(thiophen-2-yl)methyl]thieno[3,2-c]pyridazin-4-amine] | 0.101 to 0.5 | 0.101 to 0.5
C#Cc1c(C[C@H](C)N)sc2c(NCc3ccco3)cnnc12 [Compound 115, 6-[(2S)-2-aminopropyl]-7-ethynyl-N-[(furan-2-y1)methyl]thieno[3,2-c]pyridazin-4-amine] | 1e-05 to 0.1 | 0.101 to 0.5
Cc1c(C[C@@H](N)CO)sc2c(NCc3nccs3)cnnc12 [Compound 5, (2R)-2-amino-3-(7-methyl-4-{[(1,3-thiazol-2-yl)methyl]amino}thieno[3,2-c]pyridazin-6-yl)propan-1-ol] | 10 to 40 | 10 to 40
C=C(C)c1sc2c(NCc3cccs3)cnnc2c1C [Compound 37, 7-methyl-6-(prop-1-en-2-yl)-N-(thiophen-2-ylmethyl)thieno[3,2-c]pyridazin-4-amine] | 10 to 40 | 10 to 40
Cc1c(C(C)CO)sc2c(NCc3cccs3)cnnc12 (stereo not drawn) [Compound 54, 2-{7-methyl-4-[(thiophen-2-ylmethyl)amino]thieno[3,2-c]pyridazin-6-yl}propan-1-ol] | 10 to 40 | 10 to 40
Cc1c(C[C@H](C)N)sc2c(NCc3nccs3)cnnc12 [Compound 6, 6-[(2S)-2-aminopropyl]-7-methyl-N-[(1,3-thiazol-2-yl)methyl]thieno[3,2-c]pyridazin-4-amine] | 0.501 to 5 | 0.501 to 5
Cc1c(CC2(N)COC2)sc2c(NCc3cccs3)cnnc12 [Compound 92, 6-[(3-aminooxetan-3-yl)methyl]-7-methyl-N-[(thiophen-2-yl)methyl]thieno[3,2-c]pyridazin-4-amine] | 10 to 40 | 10 to 40
Cc1c(C[C@@H](N)[C@H](C)F)sc2c(NCc3cccs3)cnnc12 [Compound 110, 6-[(2R,3S)-2-amino-3-fluorobutyl]-7-methyl-N-[(thiophen-2-yl)methyl]thieno[3,2-c]pyridazin-4-amine] | 0.101 to 0.5 | 0.101 to 0.5
N[C@@H](CO)Cc1sc2c(NCc3cccs3)cnnc2c1Br [Compound 94, (2R)-2-amino-3-(7-bromo-4-{[(thiophen-2-yl)methyl]amino}thieno[3,2-c]pyridazin-6-yl)propan-1-ol] | 0.101 to 0.5 | 0.101 to 0.5
N[C@@H](COC1CC1)Cc1sc2c(NCc3cccs3)cnnc2c1Br [Compound 137, 6-[(2R)-2-amino-3-cyclopropoxypropyl]-7-bromo-N-[(thiophen-2-yl)methyl]thieno[3,2-c]pyridazin-4-amine] | 0.501 to 5 | 0.501 to 5
Cc1c(C[C@@H](N)CS(C)(=O)=O)sc2c(NCc3ccco3)cnnc12 [Compound 32, 6-[(2R)-2-amino-3-methanesulfonylpropyl]-N-[(furan-2-yl)methyl]-7-methylthieno[3,2-c]pyridazin-4-amine] | 10 to 40 | 10 to 40
CSC[C@H](N)Cc1sc2c(NCc3ccco3)cnnc2c1C [Compound 30, 6-[(2R)-2-amino-3-(methylsulfanyl)propyl]-N-[(furan-2-yl)methyl]-7-methylthieno[3,2-c]pyridazin-4-amine] | 0.501 to 5 | 0.501 to 5
Cc1c(CC#N)sc2c(NCc3cccs3)cnnc12 [Compound 98, 2-{7-methyl-4-[(thiophen-2-ylmethyl)amino]thieno[3,2-c]pyridazin-6-yl}acetonitrile] | 10 to 40 | 10 to 40
C[C@H](N)Cc1cc2nncc(NCc3cccs3)c2s1 [Compound 39, 6-[(2S)-2-aminopropyl]-N-[(thiophen-2-yl)methyl]thieno[3,2-c]pyridazin-4-amine] | 0.501 to 5 | 0.501 to 5
Cc1c(C(C)(C)O)sc2c(NCc3cccs3)cnnc12 [Compound 65, 2-{7-methyl-4-[(thiophen-2-ylmethyl)amino]thieno [3,2-c]pyridazin-6-yl}propan-2-ol] | 10 to 40 | 10 to 40

SMILES | IC50 [1] [µM] | IC50 [2] [µM]
Cc1c(C[C@@H](N)CC(F)F)sc2c(NCc3cccs3)cnnc12 [Compound 28, 6-[(2S)-2-amino-4,4-difluorobutyl]-7-methyl-N-[(thiophen-2-yl)methyl]thieno[3,2-c]pyridazin-4-amine] | 10 to 40 | 10 to 40
CCc1csc2c(NCc3cccs3)cnnc12 [Compound 40, 7-ethyl-N-[(thiophen-2-yl)methyl]thieno[3,2-c]pyridazin-4-amine] | 10 to 40 | 10 to 40
COc1c(C[C@H](C)N)sc2c(NCc3cccs3)cnnc12 [Compound 22, (S)-6-(2-aminopropyl)-7-methoxy-N-(thiophen-2-ylmethyl)thieno[3,2-c]pyridazin-4-amine] | 0.501 to 5 | 0.501 to 5
Cc1c(C[C@H](C)N)sc2c(Nc3cccs3)cnnc12 [Compound 82, 6-[(2S)-2-aminopropyl]-7-methyl-N-(thiophen-2-yl)thieno[3,2-c]pyridazin-4-amine] | 10 to 40 | 10 to 40
Cc1c(C(F)[C@H](C)N)sc2c(NCc3cccs3)cnnc12 (stereo partly drawn) [Compound 55, 6-[(2S)-2-amino-1-fluoropropyl]-7-methyl-N-[(thiophen-2-yl)methyl]thieno[3,2-c]pyridazin-4-amine] | 0.501 to 5 | 0.501 to 5
Cc1c(CC(N)=O)sc2c(NCc3cccs3)cnnc12 [Compound 105, 2-(7-methyl-4-{[(thiophen-2-yl)methyl]amino}thieno[3,2-c]pyridazin-6-yl)acetamide] | 10 to 40 | 10 to 40
Cc1c(C[C@@H](N)CO)sc2c(NCc3ccsc3)cnnc12 [Compound 7, (2R)-2-amino-3-(7-methyl-4-{[(thiophen-3-yl)methyl]amino}thieno[3,2-c]pyridazin-6-yl)propan-1-ol] | 0.501 to 5 | 0.501 to 5
Cc1c(C[C@@H](N)[C@@H](C)F)sc2c(NCc3cccs3)cnnc12 [Compound 111, 6-[(2R,3R)-2-amino-3-fluorobutyl]-7-methyl-N-[(thiophen-2-yl)methyl]thieno[3,2-c]pyridazin-4-amine] | 0.501 to 5 | 0.501 to 5
C[C@H](N)Cc1sc2c(NCc3ccco3)cnnc2c1Cl [Compound 101, 6-[(2S)-2-aminopropyl]-7-chloro-N-[(furan-2-yl)methyl]thieno[3,2-c]pyridazin-4-amine] | 0.101 to 0.5 | 0.101 to 0.5
COc1ccc(CNc2cnnc3c(C)c(C[C@H](C)N)sc23)s1 [Compound 76, 6-[(2S)-2-aminopropyl]-N-[(5-methoxythiophen-2-yl)methyl]-7-methylthieno[3,2-c]pyridazin-4-amine] | 10 to 40 | 10 to 40
Cc1c(C[C@H](C)N)sc2c(NCn3cccn3)cnnc12 [Compound 15, 6-[(2S)-2-aminopropyl]-7-methyl-N-[(1H-pyrazol-1-yl)methyl]thieno[3,2-c]pyridazin-4-amine] | 0.501 to 5 | 0.501 to 5
Cc1c(C[C@@H](N)CC(C)C)sc2c(NCc3ccco3)cnnc12 [Compound 20, 6-[(2S)-2-amino-4-methylpentyl]-N-[(furan-2-y1)methyl]-7-methylthieno[3,2-c]pyridazin-4-amine] | 5 to 10 | 5 to 10
C#CC[C@H](N)Cc1sc2c(NCc3cccs3)cnnc2c1C [Compound 142, 6-[(2S)-2-aminopent-4-yn-1-yl]-7-methyl-N-(thiophen-2-ylmethyl)thieno[3,2-c]pyridazin-4-amine] | 0.501 to 5 | 0.501 to 5
Cc1c([C@@H](C)[C@@H](C)N)sc2c(NCc3cccs3)cnnc12 [Compound 102, 6-[(2S,3R)-3-aminobutan-2-yl]-7-methyl-N-[(thiophen-2-yl)methyl]thieno[3,2-c]pyridazin-4-amine] | 10 to 40 | 10 to 40
C[C@H](F)[C@H](N)Cc1sc2c(NCc3cccs3)cnnc2c1Br [Compound 135, 6-[(2R,3S)-2-amino-3-fluorobutyl]-7-bromo-N-[(thiophen-2-yl)methyl]thieno[3,2-c]pyridazin-4-amine] | 0.101 to 0.5 | 0.101 to 0.5
Cc1c(C[C@H](C)N)sc2c(NCn3cccc3)cnnc12 [Compound 43, 6-[(2S)-2-aminopropyl]-7-methyl-N-[(1H-pyrrol-1-yl)methyl]thieno[3,2-c]pyridazin-4-amine] | 5 to 10 | 5 to 10
